# Laboratory results from ChEMBL document CHEMBL3045554, “Synthesis and antimicrobial screening of N-(1-methyl-1H-pyrazole-4-carbonyl)-thiourea derivatives” (2012).
# Activity calls are given as the source filed them. The rule behind the calls is not given here.
# What was measured:
# Enterococcus faecalis [1] = test: Effect on gelatinase production in Enterococcus faecalis 13773 after 24 hr by gelatin hydrolysis test; assay type: functional, organism-based
# Staphylococcus aureus [2] = test: Effect on esculethol production in Staphylococcus aureus after 24 hr by esculin hydrolysis test; assay type: functional, organism-based
# Pseudomonas aeruginosa [3] = test: Inhibition of caseinase production in Pseudomonas aeruginosa 5541 after 24 hr by casein hydrolysis assay; assay type: functional, organism-based
# Escherichia coli [4] = test: Effect on gelatinase production in Escherichia coli 637/2007 after 24 hr by gelatin hydrolysis test; assay type: functional, organism-based
# Bacillus subtilis [5] = test: Effect on gelatinase production in Bacillus subtilis 10.10.2006 after 24 hr by gelatin hydrolysis test; assay type: functional, organism-based
# Klebsiella pneumoniae [6] = test: Effect on amylase production in Klebsiella pneumoniae 126/2007 after 24 hr by starch hydrolysis assay; assay type: functional, organism-based
# Acinetobacter baumannii [7] = test: Inhibition of lecithinase production in Acinetobacter baumannii 15896 after 7 days; assay type: functional, organism-based
# Acinetobacter baumannii [8] = test: Effect on DNase production in Acinetobacter baumannii 15896 after 24 hr; assay type: functional, organism-based
# Klebsiella pneumoniae [9] = test: Antimicrobial activity against Klebsiella pneumoniae 126/2007 by microdilution method; assay type: functional
# Escherichia coli [10] = test: Effect on lipase production in Escherichia coli 637/2007 after 7 days; assay type: functional, organism-based
# Staphylococcus aureus [11] = test: Effect on DNase production in Staphylococcus aureus after 24 hr; assay type: functional, organism-based
# Enterococcus faecalis [12] = test: Inhibition of lecithinase production in Enterococcus faecalis 13773 after 7 days; assay type: functional, organism-based
# Klebsiella pneumoniae [13] = test: Effect on gelatinase production in Klebsiella pneumoniae 126/2007 after 24 hr by gelatin hydrolysis test; assay type: functional, organism-based
# Staphylococcus aureus [14] = test: Effect on amylase production in Staphylococcus aureus after 24 hr by starch hydrolysis assay; assay type: functional, organism-based
# Acinetobacter baumannii [15] = test: Inhibition of caseinase production in Acinetobacter baumannii 15896 after 24 hr by casein hydrolysis assay; assay type: functional, organism-based
# Klebsiella pneumoniae [16] = test: Effect on esculethol production in Klebsiella pneumoniae 126/2007 after 24 hr by esculin hydrolysis test; assay type: functional, organism-based
# Acinetobacter baumannii [17] = test: Effect on lipase production in Acinetobacter baumannii 15896 after 7 days; assay type: functional, organism-based
# Escherichia coli [18] = test: Inhibition of lecithinase production in Escherichia coli 637/2007 after 7 days; assay type: functional, organism-based
# Enterococcus faecalis [19] = test: Inhibition of caseinase production in Enterococcus faecalis 13773 after 24 hr by casein hydrolysis assay; assay type: functional, organism-based
# Staphylococcus aureus [20] = test: Effect on lipase production in Staphylococcus aureus after 7 days; assay type: functional, organism-based
# Bacillus subtilis [21] = test: Antimicrobial activity against Bacillus subtilis 10.10.2006 by microdilution method; assay type: functional
# Bacillus subtilis [22] = test: Effect on esculethol production in Bacillus subtilis 10.10.2006 after 24 hr by esculin hydrolysis test; assay type: functional, organism-based
# Acinetobacter baumannii [23] = test: Effect on amylase production in Acinetobacter baumannii 15896 after 24 hr by starch hydrolysis assay; assay type: functional, organism-based
# Pseudomonas aeruginosa [24] = test: Effect on esculethol production in Pseudomonas aeruginosa 5541 after 24 hr by esculin hydrolysis test; assay type: functional, organism-based
# Escherichia coli [25] = test: Antimicrobial activity against Escherichia coli 637/2007 by microdilution method; assay type: functional
# Klebsiella pneumoniae [26] = test: Effect on DNase production in Klebsiella pneumoniae 126/2007 after 24 hr; assay type: functional, organism-based
# Bacillus subtilis [27] = test: Effect on amylase production in Bacillus subtilis 10.10.2006 after 24 hr by starch hydrolysis assay; assay type: functional, organism-based
# Enterococcus faecalis [28] = test: Effect on esculethol production in Enterococcus faecalis 13773 after 24 hr by esculin hydrolysis test; assay type: functional, organism-based
# Enterococcus faecalis [29] = test: Antimicrobial activity against Enterococcus faecalis 13773 by microdilution method; assay type: functional
# Acinetobacter baumannii [30] = test: Antimicrobial activity against Acinetobacter baumannii 15896 by microdilution method; assay type: functional
# Pseudomonas aeruginosa [31] = test: Effect on lipase production in Pseudomonas aeruginosa 5541 after 7 days; assay type: functional, organism-based
# Bacillus subtilis [32] = test: Inhibition of caseinase production in Bacillus subtilis 10.10.2006 after 24 hr by casein hydrolysis assay; assay type: functional, organism-based
# Pseudomonas aeruginosa [33] = test: Effect on DNase production in Pseudomonas aeruginosa 5541 after 24 hr; assay type: functional, organism-based
# Enterococcus faecalis [34] = test: Effect on DNase production in Enterococcus faecalis 13773 after 24 hr; assay type: functional, organism-based
# Staphylococcus aureus [35] = test: Effect on gelatinase production in Staphylococcus aureus after 24 hr by gelatin hydrolysis test; assay type: functional, organism-based
# Acinetobacter baumannii [36] = test: Effect on esculethol production in Acinetobacter baumannii 15896 after 24 hr by esculin hydrolysis test; assay type: functional, organism-based
# Bacillus subtilis [37] = test: Effect on lipase production in Bacillus subtilis 10.10.2006 after 7 days; assay type: functional, organism-based
# Pseudomonas aeruginosa [38] = test: Effect on amylase production in Pseudomonas aeruginosa 5541 after 24 hr by starch hydrolysis assay; assay type: functional, organism-based
# Pseudomonas aeruginosa [39] = test: Antimicrobial activity against Pseudomonas aeruginosa 5541 by microdilution method; assay type: functional
# Escherichia coli [40] = test: Effect on amylase production in Escherichia coli 637/2007 after 24 hr by starch hydrolysis assay; assay type: functional, organism-based
# Staphylococcus aureus [41] = test: Inhibition of caseinase production in Staphylococcus aureus after 24 hr by casein hydrolysis assay; assay type: functional, organism-based
# Enterococcus faecalis [42] = test: Effect on lipase production in Enterococcus faecalis 13773 after 7 days; assay type: functional, organism-based
# Escherichia coli [43] = test: Inhibition of caseinase production in Escherichia coli 637/2007 after 24 hr by casein hydrolysis assay; assay type: functional, organism-based
# Staphylococcus aureus [44] = test: Antimicrobial activity against Staphylococcus aureus by microdilution method; assay type: functional
# Escherichia coli [45] = test: Effect on DNase production in Escherichia coli 637/2007 after 24 hr; assay type: functional, organism-based
# Pseudomonas aeruginosa [46] = test: Effect on gelatinase production in Pseudomonas aeruginosa 5541 after 24 hr by gelatin hydrolysis test; assay type: functional, organism-based
# Klebsiella pneumoniae [47] = test: Inhibition of lecithinase production in Klebsiella pneumoniae 126/2007 after 7 days; assay type: functional, organism-based
# Klebsiella pneumoniae [48] = test: Inhibition of caseinase production in Klebsiella pneumoniae 126/2007 after 24 hr by casein hydrolysis assay; assay type: functional, organism-based
# Staphylococcus aureus [49] = test: Inhibition of lecithinase production in Staphylococcus aureus after 7 days; assay type: functional, organism-based
# Escherichia coli [50] = test: Effect on esculethol production in Escherichia coli 637/2007 after 24 hr by esculin hydrolysis test; assay type: functional, organism-based
# Pseudomonas aeruginosa [51] = test: Inhibition of lecithinase production in Pseudomonas aeruginosa 5541 after 7 days; assay type: functional, organism-based
# Bacillus subtilis [52] = test: Inhibition of lecithinase production in Bacillus subtilis 10.10.2006 after 7 days; assay type: functional, organism-based
# Klebsiella pneumoniae [53] = test: Effect on lipase production in Klebsiella pneumoniae 126/2007 after 7 days; assay type: functional, organism-based
# Acinetobacter baumannii [54] = test: Effect on gelatinase production in Acinetobacter baumannii 15896 after 24 hr by gelatin hydrolysis test; assay type: functional, organism-based
# Bacillus subtilis [55] = test: Effect on DNase production in Bacillus subtilis 10.10.2006 after 24 hr; assay type: functional, organism-based
# Enterococcus faecalis [56] = test: Effect on amylase production in Enterococcus faecalis 13773 after 24 hr by starch hydrolysis assay; assay type: functional, organism-based
smiles,measurement,setting,value
CCc1ccccc1NC(=S)NC(=O)c1cnn(C)c1,Activity,Enterococcus faecalis [1],inactive
same,Activity,Staphylococcus aureus [2],inactive
same,inhibition,Pseudomonas aeruginosa [3],inactive
same,Activity,Escherichia coli [4],inactive
same,Activity,Bacillus subtilis [5],inactive
same,Activity,Klebsiella pneumoniae [6],inactive
same,inhibition,Acinetobacter baumannii [7],inactive
same,Activity,Acinetobacter baumannii [8],inactive
same,MIC,Klebsiella pneumoniae [9],1000 µg/mL
same,Activity,Escherichia coli [10],inactive
same,Activity,Staphylococcus aureus [11],inactive
same,inhibition,Enterococcus faecalis [12],inactive
same,Activity,Klebsiella pneumoniae [13],inactive
same,Activity,Staphylococcus aureus [14],inactive
same,inhibition,Acinetobacter baumannii [15],inactive
same,Activity,Klebsiella pneumoniae [16],inactive
same,Activity,Acinetobacter baumannii [17],inactive
same,inhibition,Escherichia coli [18],inactive
same,inhibition,Enterococcus faecalis [19],inactive
same,Activity,Staphylococcus aureus [20],inactive
same,MIC,Bacillus subtilis [21],1000 µg/mL
same,Activity,Bacillus subtilis [22],inactive
same,Activity,Acinetobacter baumannii [23],inactive
same,Activity,Pseudomonas aeruginosa [24],inactive
same,MIC,Escherichia coli [25],> 1000 µg/mL
same,Activity,Klebsiella pneumoniae [26],inactive
same,Activity,Bacillus subtilis [27],inactive
same,Activity,Enterococcus faecalis [28],inactive
same,MIC,Enterococcus faecalis [29],> 1000 µg/mL
same,MIC,Acinetobacter baumannii [30],250 µg/mL
same,Activity,Pseudomonas aeruginosa [31],inactive
same,inhibition,Bacillus subtilis [32],inactive
same,Activity,Pseudomonas aeruginosa [33],inactive
same,Activity,Enterococcus faecalis [34],inactive
same,Activity,Staphylococcus aureus [35],inactive
same,Activity,Acinetobacter baumannii [36],inactive
same,Activity,Bacillus subtilis [37],inactive
same,Activity,Pseudomonas aeruginosa [38],inactive
same,MIC,Pseudomonas aeruginosa [39],500 µg/mL
same,Activity,Escherichia coli [40],inactive
same,inhibition,Staphylococcus aureus [41],inactive
same,Activity,Enterococcus faecalis [42],inactive
same,inhibition,Escherichia coli [43],inactive
same,MIC,Staphylococcus aureus [44],250 µg/mL
same,Activity,Escherichia coli [45],inactive
same,Activity,Pseudomonas aeruginosa [46],inactive
same,inhibition,Klebsiella pneumoniae [47],Active
same,inhibition,Klebsiella pneumoniae [48],inactive
same,inhibition,Staphylococcus aureus [49],inactive
same,Activity,Escherichia coli [50],inactive
same,inhibition,Pseudomonas aeruginosa [51],inactive
same,inhibition,Bacillus subtilis [52],inactive
same,Activity,Klebsiella pneumoniae [53],inactive
same,Activity,Acinetobacter baumannii [54],inactive
same,Activity,Bacillus subtilis [55],inactive
same,Activity,Enterococcus faecalis [56],inactive
